Results from US20230212225A1, “PEPTIDE COMPOSTIONS AND METHODS FOR TREATING TAUOPATHIES” (AXOLTIS PHARMA, priority 2019, published 2023).
Where two headings read alike, the source gives them in different places. Each block holds one molecule with its values, some of them ahead of it. Where a SMILES comes first, the peptide text is derived from it. Bridges are numbered along the chain shown (N, C = ends).

Experiments:
[1] = tested on: Aβ25-35-induced short-term memory deficits; assay: Long-term study (120 days): weekly Y-maze, NX218 and/or DPZ based treatments; type: in vivo, mice
Procedure: To investigate the potential of NX218 treatment to maintain cognitive restoration for a longer duration and to work as a 2nd line treatment when DPZ lose its activity: a long-term study (120 days) was performed in the Aβ25-35 mouse model of Tauopathies.
Mice were assigned to 6 treatment groups with 5-6 animals per group as described below.
From D01 until D120, mice of groups 1 and 2 were administered IP once a day (o.d.) with vehicle (water for injection).
Test compound NX218: • From D11 until D38, mice of group 3 were administered IP o.d. with NX218 at 2 mg/kg (mice were not treated with vehicle from D01 until D10). • From D01 until D120, mice of group 4 were administered IP o.d. with NX218 at 2 mg/kg.
DPZ rescued by test compound NX218: • From D01, mice of group 5 were administered PO by gavage o.d with DPZ at its active dose (1 mg/kg) until its effect disappears. Its efficacy disappeared on D36. DPZ was administered until D43 and then from D44, NX218 replaced DPZ until D78 via IP administration once a day at its active dose (2 mg/kg). • From D79 until D99: NX218 was administered via IP administration o.d. at a higher dose (4 mg/kg). • From D100 until D113 NX218 was administered via IP administration o.d. at a higher dose (8 mg/kg). • Administration of NX218 was stopped from D114 until animals were sacrificed.
Test compound NX218 in combination with DPZ: • From D01 until D120, mice of group 6 were co-administered with NX218 and DPZ at their respective subactive doses: • NX218: IP o.d., 0.1 mg/kg • DPZ: PO o.d., 0.25 mg/kg
All groups performed one behavioral test every week starting on D08 (7 days after Aβ25-35 peptide injection) to monitor the effects of the compounds:
Spontaneous alternation procedure in the Y-maze (YM, assessing spatial short-term/working memory as described in example 3) on D08, D15, D22, D29, D36, D43, D50, D57, D64, D71, D78, D85, D92, D99, D106, D113 and D120.

[2] = tested on: Aβ25-35-induced long-term memory deficits; assay: Step-through passive avoidance test (STPA), D09-D10; type: in vivo, mice
[3] = tested on: Aβ25-35-induced short-term memory deficits; assay: Spontaneous alternation performance (Y-maze), treatment started 1 hour after Aβ25-35 injection, tested D08; type: in vivo, mice; conditions: for Y-maze % (Sc.Aβ / Vhc = 100) / Y-maze Mean, percentage of alternation: D08
[4] = Preliminary PK study in rat; type: in vivo; conditions: slow bolus IV 49 mg/kg of NX210
Procedure: (§1) Therefore NX210 PK in animals is followed by the measurement of its cyclic form NX218. First a preliminary PK study in rat was performed in order to validate the method for detecting NX218 in plasma then translated to monkey by performing a more robust PK study with repeated experiments. All PK studies were performed with NaCl 0.9% as vehicle.

PK study in monkey = type: in vivo; conditions: for half-life: plasma, iv, 10 mg/kg
Procedure: as §1
In the 3 monkeys tested, data were reproducible after repeated testing at different days (D22, D37 and D51), after bolus IV injection of 10 mg/kg of NX210.

[5] = once a day, NX210 0.1 mg/kg, NX218 0.1 mg/kg, DPZ 0.25 mg/kg
[6] = monkey plasma NX218 after bolus IV 10 mg/kg NX210, mean

SMILES: COc1cc2c(cc1OC)C(=O)C(CC1CCN(Cc3ccccc3)CC1)C2 (centres unmarked) [DPZ, Donepezil, reference compound]
duration of efficacy (Y-maze), in words ([1]; Group 5, DPZ PO 1 mg/kg o.d.): efficient only until D36
% of alternation at DPZ resistance ([1]; Group 5, after 4 weeks of DPZ treatment): 37%
Y-maze (D43) Mean (percentage of alternation) ([1]; Group 5: DPZ 1 mg/kg PO o.d. D01-D43, tested D43): 38.73%
Y-maze (D43) % ([1]; Group 5: DPZ 1 mg/kg PO o.d. D01-D43, tested D43, Group 1 = 100): 52%
Y-maze (D08) Mean, percentage of alternation ([1]; Group 5: DPZ 1 mg/kg PO o.d. from D01, tested D08): 72.08%
Y-maze (D08) % ([1]; Group 5: DPZ 1 mg/kg PO o.d. from D01, tested D08, Group 1 = 100): 98%
Y-maze (D15) Mean, percentage of alternation ([1]; Group 5: DPZ 1 mg/kg PO o.d. from D01, tested D15): 76.00%
Y-maze (D15) % ([1]; Group 5: DPZ 1 mg/kg PO o.d. from D01, tested D15, Group 1 = 100): 98%
Y-maze (D22) Mean, percentage of alternation ([1]; Group 5: DPZ 1 mg/kg PO o.d. from D01, tested D22): 79.07%
Y-maze (D22) % ([1]; Group 5: DPZ 1 mg/kg PO o.d. from D01, tested D22, Group 1 = 100): 106%
Y-maze (D29) Mean, percentage of alternation ([1]; Group 5: DPZ 1 mg/kg PO o.d. from D01, tested D29): 62.05%
Y-maze (D29) % ([1]; Group 5: DPZ 1 mg/kg PO o.d. from D01, tested D29, Group 1 = 100): 80%
Y-maze (D36) Mean (percentage of alternation) ([1]; Group 5: DPZ 1 mg/kg PO o.d. from D01, tested D36): 36.23%
Y-maze (D36) % ([1]; Group 5: DPZ 1 mg/kg PO o.d. from D01, tested D36, Group 1 = 100): 49%
EL % (Sc.Aβ / Vhc = 100) ([2]; PO 0.25 mg/kg once a day): 445%
EL Mean, escape latency, retention session ([2]; PO 0.25 mg/kg once a day): 88.67 s
STL % (Sc.Aβ / Vhc = 100) ([2]; PO 0.25 mg/kg once a day): 39%
STL Mean, step-through latency, retention session ([2]; PO 0.25 mg/kg once a day): 109.33 s
EL % (Sc.Aβ / Vhc = 100) ([2]; PO 1 mg/kg once a day): 122%
EL Mean, escape latency, retention session ([2]; PO 1 mg/kg once a day): 24.25 s
STL % (Sc.Aβ / Vhc = 100) ([2]; PO 1 mg/kg once a day): 94%
STL Mean, step-through latency, retention session ([2]; PO 1 mg/kg once a day): 265.83 s
effect on contextual long-term memory deficits (STL and EL) at subactive dose, in words [2, 5]: do not impede
Y-maze % (Sc.Aβ / Vhc = 100) ([3]; PO 0.25 mg/kg once a day): 56%
Y-maze Mean, percentage of alternation ([3]; PO 0.25 mg/kg once a day): 41.82%
Y-maze % (Sc.Aβ / Vhc = 100) ([3]; PO 1 mg/kg once a day): 93%
Y-maze Mean, percentage of alternation ([3]; PO 1 mg/kg once a day): 68.90%
effect on Aβ25-35-induced short-term memory deficits (Y-maze) at subactive dose, in words [3, 5]: do not impede

time after injection from which NX218 became impossible to quantify in plasma [4]: 3 h
AUC (PK study in monkey; [6]): 960 ng·h/mL
AUC(0-inf) (PK study in monkey; [6]): 1060 ng·h/mL
Cmax (PK study in monkey; [6]): 19300 ng/mL
Tmax (PK study in monkey; [6]): 0 h
clearance (PK study in monkey; [6]): 190 mL/min/kg
Vd (PK study in monkey; monkey plasma NX218 after bolus IV 10 mg/kg NX210, mean, read-out: VSS): 0.0936 L/kg
plasma concentration course after injection, in words (PK study in monkey; monkey, bolus IV 10 mg/kg of NX210): rapidly decreased up to 30 minutes
half-life (PK study in monkey; monkey, monkey plasma NX218 after bolus IV 10 mg/kg NX210, mean, read-out: t½): 12.7 min
half-life (PK study in monkey; monkey, monkey, bolus IV 10 mg/kg NX210, NX218 measured, read-out: half-life): ~12 min
SMILES: N=C(N)NCCC[C@@H]1NC(=O)[C@H](CO)NC(=O)[C@@H](NC(=O)[C@H](CO)NC(=O)[C@H](CO)NC(=O)[C@H](Cc2c[nH]c3ccccc23)NC(=O)CNC(=O)[C@H](CO)NC(=O)[C@@H](N)Cc2c[nH]c3ccccc23)CSSC[C@@H](C(=O)NCC(=O)O)NC(=O)[C@H](CO)NC1=O [NX218, W-S-G-W-S-S-C-S-R-S-C-G] (H-WSGWSSCSRSCG-OH; disulfide 7-11; N-terminus and C-terminus assumed)
